These results are taken from patent US11109593B2, “Isoxazolin-5-one derivative and herbicide containing same as active ingredient” (HOKKO CHEMICAL INDUSTRY CO., LTD., priority 2017, dated 2021).

What all share (type): in vivo
Test [1] concerns Chenopodium album. The test can be described thus: Test Example 4: herbicidal effect test by treatment of leave and stem in dry field farming (seven days after seeding). Conditions: 120 g/10a active ingredient; emulsion sprayed seven days after seeding; evaluated 14 days after treatment. Summed up: (§1)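 Duplicate pots were scored 14 days post-spray by dry weight, herbicidal rate = {1 − treated/untreated average dry weight} × 100. The water-diluted emulsion, equivalent to 120 g active ingredient per 10 ares in 100 L, was applied seven days after sowing 20 seeds each into the upper 1 cm of alluvial soil.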

The subject of test [2] is Amaranthus viridis. Described as above. Conditions: 120 g/10a active ingredient; emulsion sprayed seven days after seeding; evaluated 14 days after treatment. A digest of the protocol: as §1
Test [3] concerns Echinochloa crus-galli. Described as above. The settings on record: 120 g/10a active ingredient; emulsion sprayed seven days after seeding; evaluated 14 days after treatment. Summed up: as §1
In test [4] the test system is southern crabgrass. The description is as above. Conditions: 120 g/10a active ingredient; emulsion sprayed seven days after seeding; evaluated 14 days after treatment. A digest of the protocol:
as §1

Test [5] has as its system broad leaf weeds (Lindernia pyxidaria and Monochoria vaginalis). Put plainly: Test Example 1: herbicidal effect test by treatment of rice paddy soil (immediately after seeding). Conditions: 120 g/10a active ingredient, dry weight vs untreated area, 14 days after treatment. Summed up: (§2)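 Applied at 120 g a.i./10 ares as diluted emulsion dropped into flooded (~3 cm) paddy soil pots right after sowing seeds 0–1 cm deep; greenhouse, two replicates. At day 14, dry weight of treated versus untreated plants gives % herbicidal rate.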

For test [6], the system named is Scirpus juncoides. The test is described as above. The settings on record: 120 g/10a active ingredient, dry weight vs untreated area, 14 days after treatment. Summed up: as §2
Test [7] has as its system Echinochloa crus-galli. Described as above. Conditions: 120 g/10a active ingredient, dry weight vs untreated area, 14 days after treatment. A digest of the protocol: as §2
Test [8] has as its system Chenopodium album. Put plainly: Test Example 3: herbicidal effect test by treatment of dry field farming soil (one day after seeding). The settings on record: 120 g/10a active ingredient, evaluated 14 days after treatment. A digest of the protocol: (§3)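 Herbicidal rate (%) equals 1 minus treated/untreated mean plant dry weight, times 100, taken 14 days after treatment in duplicate pots. Emulsion diluted in water was applied at 100 L per 10 ares (120 g a.i. per 10 ares) one day after sowing 20 seeds per species into the top 1 cm of alluvial soil.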

The test system of test [9] is Amaranthus viridis. Described as above. The settings on record: 120 g/10a active ingredient, evaluated 14 days after treatment. Summed up:
as §3

In test [10] the test system is Echinochloa crus-galli. The test is described as above. Conditions: 120 g/10a active ingredient, evaluated 14 days after treatment. A digest of the protocol:
as §3

The test system of test [11] is southern crabgrass. Described as above. Conditions: 120 g/10a active ingredient, evaluated 14 days after treatment. Summed up:
as §3

Test [12] relates to broad leaf weeds (Lindernia pyxidaria and Monochoria vaginalis). Put plainly: Test Example 2: herbicidal effect test by treatment during growing period in paddy rice cultivation (seven days after seeding). The settings on record: 120 g/10a active ingredient, assessed 14 days after treatment, dry weight vs untreated area. Summed up: (§4)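 Herbicidal rate (%) = {1 − treated/untreated mean plant dry weight} × 100, assessed in duplicate 14 days post-treatment. Emulsion formulations were diluted in water and dropped onto flooded (about 3 cm) paddy pots 7 days after seeding, giving 120 g a.i. per 10 ares. Plants were grown in a glass greenhouse.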

Test [13] concerns Scirpus juncoides. Described as above. Conditions: 120 g/10a active ingredient, assessed 14 days after treatment, dry weight vs untreated area. Summed up:
as §4

In test [14] the test system is Echinochloa crus-galli. The test is described as above. The settings on record: 120 g/10a active ingredient, assessed 14 days after treatment, dry weight vs untreated area. A digest of the protocol: as §4

For the compound `Cc1c(Cc2ccccc2N(S(C)(=O)=O)S(=O)(=O)C(F)(F)F)c(=O)on1C(C)C` [Compound 1-888], in test [1], the “herbicidal effect (herbicidal rate), Chenopodium album” value (shortened to “herbicidal effect … Chenopodium album”) is 40%. Besides, the “herbicidal effect (herbicidal rate), Amaranthus viridis” value (shortened to “herbicidal effect … Amaranthus viridis”) in test [2] stood at 40%. In addition, in test [3], the “herbicidal effect (herbicidal rate), Echinochloa crus-galli” value stood at 80%. Besides, in test [4], the “herbicidal effect (herbicidal rate), southern crabgrass” value (“herbicidal effect … southern crabgrass” below) is 40%. The results for the “Herbicidal rate (%) Lindernia pyxidaria” value in test [5] and in test [12] were 100% and 80%, respectively. Besides, the results for the “Herbicidal rate (%) Monochoria vaginalis” value in test [5] and in test [12] were 90% and 100%, respectively. Further, the “Herbicidal rate (%) Scirpus juncoides” value in [6] and in test [13] was 90% each time. Besides, the “Herbicidal rate (%) Echinochloa crus-galli” value is listed as 100% in test [7] and 90% in [14]. For the same compound, the “herbicidal rate, Chenopodium album” value in test [8] was 60%. Besides, the “herbicidal rate, Amaranthus viridis” value in test [9] stood at 40%. Further, the “herbicidal rate, Echinochloa crus-galli” value in test [10] came to 90%. Further, the “herbicidal rate, southern crabgrass” value in [11] is reported as 70%.
As for `Cc1c(Cc2ccccc2NS(=O)(=O)C(F)(F)F)c(=O)on1C(C)C` [Compound 1-100], the “herbicidal effect … Chenopodium album” value in [1] was 90%. Further, the “herbicidal effect … Amaranthus viridis” value in [2] worked out at 30%. Besides, the “herbicidal effect (herbicidal rate), Echinochloa crus-galli” value in test [3] is on record as 90%. For the same compound, the “herbicidal effect … southern crabgrass” value in test [4] was 90%. Also, the “Herbicidal rate (%) Lindernia pyxidaria” value was found to be 100% in test [5] and 90% in [12]. The “Herbicidal rate (%) Monochoria vaginalis” value in [5] and in test [12] was 100% throughout. The “Herbicidal rate (%) Scirpus juncoides” value in test [6] and in test [13] was 90% in each case. In addition, the “Herbicidal rate (%) Echinochloa crus-galli” value in test [7] and in [14] was 90% each time. The “herbicidal rate, Chenopodium album” value in test [8] is 100%. For the same compound, the “herbicidal rate, Amaranthus viridis” value in test [9] worked out at 100%. Besides, the “herbicidal rate, Echinochloa crus-galli” value in test [10] turned out to be 100%. Also, the “herbicidal rate, southern crabgrass” value in test [11] is on record as 100%.
For `Cc1c(Cc2ccccc2N(C(=O)C2CC2)S(=O)(=O)C(F)(F)F)c(=O)on1CC(C)(C)C` [Compound 1-407], in test [1], the “herbicidal effect … Chenopodium album” value is given as 40%. In addition, in test [2], the “herbicidal effect … Amaranthus viridis” value was 40%. The “herbicidal effect (herbicidal rate), Echinochloa crus-galli” value in [3] is listed as 90%. In test [4], the “herbicidal effect … southern crabgrass” value is 90%. Moreover, the “Herbicidal rate (%) Lindernia pyxidaria” value in test [5] and in test [12] was 90% in each case. Also, the “Herbicidal rate (%) Monochoria vaginalis” value in [5] and in test [12] was 90% throughout. Besides, the “Herbicidal rate (%) Scirpus juncoides” value in [6] and in test [13] was 90% throughout. Also, the “Herbicidal rate (%) Echinochloa crus-galli” value in test [7] and in test [14] was 90% throughout. The “herbicidal rate, Chenopodium album” value in test [8] is given as 90%. In addition, the “herbicidal rate, Amaranthus viridis” value in test [9] is given as 90%. The “herbicidal rate, Echinochloa crus-galli” value in test [10] is reported as 90%. Further, the “herbicidal rate, southern crabgrass” value in [11] was found to be 90%.
On to `Cc1c(Cc2ccccc2N(C(=O)OC(C)C)S(=O)(=O)C(F)(F)F)c(=O)on1C(C)c1ccccc1` (centres unmarked) [Compound 1-653], for which the “herbicidal effect … Chenopodium album” value in [1] is 40%. For the same compound, the “herbicidal effect … Amaranthus viridis” value in [2] was found to be 40%. Further, in test [3], the “herbicidal effect (herbicidal rate), Echinochloa crus-galli” value came out at 90%. In [4], the “herbicidal effect … southern crabgrass” value came out at 90%. Also, the “Herbicidal rate (%) Lindernia pyxidaria” value in test [5] and in test [12] was 90% throughout. Besides, the “Herbicidal rate (%) Monochoria vaginalis” value in test [5] and in test [12] was 90% in each case. The “Herbicidal rate (%) Scirpus juncoides” value in test [6] and in test [13] was 90% in each case. The “Herbicidal rate (%) Echinochloa crus-galli” value in test [7] and in test [14] was 90% throughout. The “herbicidal rate, Chenopodium album” value in test [8] is 90%. The “herbicidal rate, Amaranthus viridis” value in test [9] amounted to 90%. For the same compound, in test [10], the “herbicidal rate, Echinochloa crus-galli” value is on record as 90%. In [11], the “herbicidal rate, southern crabgrass” value was found to be 90%.
For the compound `Cc1c(Cc2ccccc2N(C(=O)CC(C)C)S(=O)(=O)C(F)(F)F)c(=O)on1CC(C)C` [Compound 1-354], the “herbicidal effect … Chenopodium album” value in [1] came out at 40%. In [2], the “herbicidal effect … Amaranthus viridis” value came to 40%. Further, in [3], the “herbicidal effect (herbicidal rate), Echinochloa crus-galli” value is listed as 80%. The “herbicidal effect … southern crabgrass” value in [4] turned out to be 60%. Moreover, the “Herbicidal rate (%) Lindernia pyxidaria” value in test [5] came to 90%; in [12] it was 70%. The “Herbicidal rate (%) Monochoria vaginalis” value in test [5] and in [12] was 90% throughout. The “Herbicidal rate (%) Scirpus juncoides” value in test [6] and in test [13] was 90% in each case. The “Herbicidal rate (%) Echinochloa crus-galli” value in test [7] and in test [14] was 100% each time. Besides, in test [8], the “herbicidal rate, Chenopodium album” value was 90%. Moreover, in test [9], the “herbicidal rate, Amaranthus viridis” value came out at 90%. For the same compound, the “herbicidal rate, Echinochloa crus-galli” value in test [10] amounted to 90%. The “herbicidal rate, southern crabgrass” value in test [11] was 80%.
`Cc1c(Cc2ccccc2N(C(=O)C(C)C)S(=O)(=O)C(F)(F)F)c(=O)on1C(C)(C)C` [Compound 1-329]: the “herbicidal effect … Chenopodium album” value in test [1] came out at 40%. The “herbicidal effect … Amaranthus viridis” value in test [2] came out at 40%. In test [3], the “herbicidal effect (herbicidal rate), Echinochloa crus-galli” value came to 90%. For the same compound, in test [4], the “herbicidal effect … southern crabgrass” value was 90%. The “Herbicidal rate (%) Lindernia pyxidaria” value in test [5] and in test [12] was 90% throughout. Besides, the “Herbicidal rate (%) Monochoria vaginalis” value in test [5] and in test [12] was 90% throughout. For the same compound, the “Herbicidal rate (%) Scirpus juncoides” value in test [6] and in test [13] was 90% in each case. Besides, the “Herbicidal rate (%) Echinochloa crus-galli” value in [7] and in [14] was 90% throughout. The “herbicidal rate, Chenopodium album” value in test [8] was 90%. Also, in [9], the “herbicidal rate, Amaranthus viridis” value is on record as 90%. The “herbicidal rate, Echinochloa crus-galli” value in [10] was determined as 90%. Besides, in test [11], the “herbicidal rate, southern crabgrass” value amounted to 90%.
`Cc1c(Cc2ccccc2N(S(=O)(=O)C(F)(F)F)S(=O)(=O)C(F)(F)F)c(=O)on1C(C)C1CC1` (centres unmarked) [Compound 1-992]: the “herbicidal effect … Chenopodium album” value in [1] amounted to 40%. For the same compound, the “herbicidal effect … Amaranthus viridis” value in test [2] came out at 40%. For the same compound, in test [3], the “herbicidal effect (herbicidal rate), Echinochloa crus-galli” value was 90%. Moreover, the “herbicidal effect … southern crabgrass” value in [4] is recorded as 50%. The “Herbicidal rate (%) Lindernia pyxidaria” value in [5] is listed as 90%; in test [12], 50%. In addition, the “Herbicidal rate (%) Monochoria vaginalis” value is 100% in test [5] and 90% in [12]. In addition, the “Herbicidal rate (%) Scirpus juncoides” value in test [6] is given as 100%; in [13], 80%. Besides, the “Herbicidal rate (%) Echinochloa crus-galli” value in [7] amounted to 100%; in [14], 90%. Further, in [8], the “herbicidal rate, Chenopodium album” value turned out to be 40%. The “herbicidal rate, Amaranthus viridis” value in test [9] came out at 40%. Further, the “herbicidal rate, Echinochloa crus-galli” value in [10] turned out to be 90%. The “herbicidal rate, southern crabgrass” value in test [11] is given as 90%.
With `CCCCCC(c1ccccc1)n1oc(=O)c(Cc2ccccc2NS(=O)(=O)C(F)(F)F)c1C` (centres unmarked) [Compound 1-215], the “herbicidal effect … Chenopodium album” value in [1] turned out to be 40%. Further, the “herbicidal effect … Amaranthus viridis” value in [2] was 50%. Also, the “herbicidal effect (herbicidal rate), Echinochloa crus-galli” value in [3] was 40%. In addition, in test [4], the “herbicidal effect … southern crabgrass” value is recorded as 50%. For the same compound, the results for the “Herbicidal rate (%) Lindernia pyxidaria” value in test [5] and in test [12] were 100% and 90%, respectively. Further, the “Herbicidal rate (%) Monochoria vaginalis” value in test [5] and in [12] was 80% throughout. Besides, the “Herbicidal rate (%) Scirpus juncoides” value in [6] and in [13] was 90% each time. Besides, the figures for the “Herbicidal rate (%) Echinochloa crus-galli” value in test [7] and in [14] were 100% and 90%, respectively. In test [8], the “herbicidal rate, Chenopodium album” value is recorded as 40%. For the same compound, in [9], the “herbicidal rate, Amaranthus viridis” value was 40%. The “herbicidal rate, Echinochloa crus-galli” value in test [10] is 50%. Besides, in test [11], the “herbicidal rate, southern crabgrass” value worked out at 50%.
